From BindingDB's records for doi:10.1021/bi9016928 (Uppsala University, 2009)
Starred links: 1 amine or outer side, 2 acyl side, 3 side chain; linkers in the order of their positions; H or OH if unused. Non-standard residues stand in square brackets, D forms with d. Residues, ends and D or L forms follow the SMILES beside them. ξ: configuration not given here. Dip = N[C@H](C(=O)O)C(c1ccccc1)c1ccccc1; 2Nal = N[C@@H](Cc1ccc2ccccc2c1)C(=O)O; Cha = N[C@@H](CC1CCCCC1)C(=O)O; Ile(3ξ) = CCC(C)[C@H](N)C(=O)O; Chg = N[C@H](C(=O)O)C1CCCCC1; Suc = O=C(CCC(=O)[*:2])[*:1]

The compounds below were run against T1, Genome polyprotein (Hepacivirus hominis, UniProt Q04045) (assay: Competitive Inhibition Assay).
T1 sequence (Q04045 whole entry): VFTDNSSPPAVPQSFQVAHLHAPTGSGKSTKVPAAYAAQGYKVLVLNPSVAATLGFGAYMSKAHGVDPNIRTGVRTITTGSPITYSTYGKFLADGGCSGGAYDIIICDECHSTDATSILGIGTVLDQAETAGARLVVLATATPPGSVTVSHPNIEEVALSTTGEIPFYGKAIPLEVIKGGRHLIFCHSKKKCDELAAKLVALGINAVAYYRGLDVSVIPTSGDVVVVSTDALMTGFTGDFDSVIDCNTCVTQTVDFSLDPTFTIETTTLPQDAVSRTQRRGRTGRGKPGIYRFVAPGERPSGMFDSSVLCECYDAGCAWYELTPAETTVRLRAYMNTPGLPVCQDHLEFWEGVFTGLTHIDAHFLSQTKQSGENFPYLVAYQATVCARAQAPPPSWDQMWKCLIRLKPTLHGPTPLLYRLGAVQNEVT
Procedure: Analysis of the inhibition activation of flNS3 by the inhibitors was performed with the standard assay, allowing the inhibitor to preincubate with NS3 and NS4 for 15 min. prior to addition of substrate.
For `COc1ccc2c(O[C@@H]3C[C@H]4C(=O)N[C@]5(C(=O)O)C[C@H]5/C=C\CCCCC[C@H](NC(=O)OC5CCCC5)C(=O)N4C3)cc(-c3csc(NC(C)C)n3)nc2c1`, the Ki was 0.12 nM. Compound `CCC(C)[C@H](NC(=O)[C@@H](NC(=O)CCC(=O)O)C1CCCCC1)C(=O)N[C@@H](CC1CCCCC1)C(=O)N[C@@H](CS)C(=O)O` (stereo partly specified) [NS3 Protease Inhibitor, 1] (Suc-[Chg][Ile(3ξ)][Cha]C-OH) has a Ki of 330 nM. `O=C(O)CCC(=O)N[C@H](C(=O)N[C@@H](CCC(=O)O)C(=O)N[C@@H](Cc1ccc2ccccc2c1)C(=O)N[C@@H](CS)C(=O)O)C1CCCCC1` [NS3 Protease Inhibitor, 2] (Suc-[Chg]E[2Nal]C-OH) gave a Ki of 180 nM. For `O=C(O)CCC(=O)N[C@H](C(=O)N[C@@H](CCC(=O)O)C(=O)N[C@@H](CCC(=O)O)C(=O)N[C@@H](CS)C(=O)O)C(c1ccccc1)c1ccccc1` [NS3 Protease Inhibitor, 3] (Suc-[Dip]EEC-OH), the Ki was 520 nM. With `O=C(O)CCC(=O)N[C@H](C(=O)N[C@@H](CCC(=O)O)C(=O)N[C@@H](CC1CCCCC1)C(=O)N[C@@H](CS)C(=O)O)C1CCCCC1` [NS3 Protease Inhibitor, 4] (Suc-[Chg]E[Cha]C-OH) the Ki was 150 nM. In the case of `CC(=O)N[C@H](C(=O)N[C@@H](CCC(=O)O)C(=O)N[C@@H](Cc1ccc2ccccc2c1)C(=O)N[C@@H](CS)C(=O)O)C1CCCCC1` [NS3 Protease Inhibitor, 5] (Ac-[Chg]E[2Nal]C-OH), the Ki is reported as 500 nM. For `COc1ccc2c(O[C@@H]3C[C@@H](C(=O)NC4(C(=O)O)CC4)N(C(=O)[C@@H](NC(=O)OC(C)(C)C)C(C)C)C3)cc(-c3ccccc3)nc2c1` [NS3 Protease Inhibitor, 6], the Ki was 1100 nM. Compound `C=CC1C[C@]1(NC(=O)[C@@H](NC(=O)C(NC(=O)OC(C)(C)C)C(C)C)c1ccc(Oc2cc(-c3ccccc3)nc3cc(OC)ccc23)cc1)C(=O)NS(=O)(=O)c1ccccc1` (stereo partly specified) [NS3 Protease Inhibitor, 7] has a Ki of 290 nM. Work on `CCC[C@H](NC(=O)[C@@H]1C[C@@H](Oc2cc(-c3ccccc3)nc3cc(OC)ccc23)CN1C(=O)[C@@H](NC(=O)OC(C)(C)C)C(C)C)C(=O)NS(=O)(=O)c1ccccc1` [NS3 Protease Inhibitor, 8] yielded a Ki of 170 nM. Compound `C=CC1C[C@]1(NC(=O)[C@@H]1C[C@@H](Oc2cc(-c3ccccc3)nc3cc(OC)ccc23)CN1C(=O)[C@@H](NC(=O)OC(C)(C)C)C(C)C)C(=O)O` (stereo partly specified) [NS3 Protease Inhibitor, 9] has a Ki of 15 nM. In the case of `C=CC1C[C@]1(NC(=O)[C@@H]1C[C@@H](Oc2cc(-c3ccccc3)nc3cc(OC)ccc23)CN1C(=O)[C@@H](NC(=O)OC(C)(C)C)C(C)C)C(=O)NS(=O)(=O)c1ccccc1` (stereo partly specified) [NS3 Protease Inhibitor, 10], the Ki is reported as 0.22 nM.
